Values after ≈ are worked out from the molar mass of the structure shown.
Tests used:
[1] = Antimicrobial activity of synthesized versus extracted substance; settings: synthesis method vs extraction method
Solubility = format: physicochemical
[2] = Subacute toxicity, daily administration over 3 months; format: in vivo, mice; settings: every day over 3 months, oral 100 mg/kg and percutaneous 250 mg/kg, respectively
Description: Further, in order to determine the subacute toxicity of the present substance, it was administered to mice every day over 3 months via an oral and a percutaneous routes using the dosage of 100 mg/kg and 250 mg/kg, respectively.

Microsporum canis = test: Antimicrobial spectrum, minimum growth inhibiting concentration (MIC); format: cell-based; settings: 72 h, Sabouraud's medium pH 5 to 6, 25° C., 3 days
Description: (§1) The antimicrobial spectrum was determined using Sabouraud's medium. Three hundred milligrams of o-methoxycinnamaldehyde was dissolved in 15 ml of methanol and diluted to give solutions with different concentrations. An aliquot of 0.1 ml of the solutions was charged into a test tube. Each 10 ml of the sterilized Sabouraud's medium of pH of 5 to 6 was charged into each of the above-mentioned test tube and well mixed with the solution of the present substance. A variety of microbial species were provided and each species was suspended in a physiological salt solution in an amount of 10^5 /ml.

Staphylococcus aureus = test: as above; format: cell-based; settings: 72 h, Sabouraud's medium pH 5 to 6, 25° C., 3 days
Description: as §1

Trichophyton rubrum = test: as above; format: cell-based; settings: 72 h, Sabouraud's medium pH 5 to 6, 25° C., 3 days
Description: as §1

Escherichia coli = test: as above; format: cell-based; settings: 72 h, Sabouraud's medium pH 5 to 6, 25° C., 3 days
Description: as §1

Aspergillus niger = test: as above; format: cell-based; settings: 72 h, Sabouraud's medium pH 5 to 6, 25° C., 3 days
Description: as §1

[3] = system: Trichophyton mentagrophytes; test: as above; format: cell-based; settings: 72 h, Sabouraud's medium pH 5 to 6, 25° C., 3 days
Description: as §1

Microsporum gypseum = test: as above; format: cell-based; settings: Nannizzia gypsea, 72 h; Sabouraud's medium pH 5 to 6, 25° C., 3 days
Description: as §1

Cryptococcus neoformans = test: as above; format: cell-based; settings: 72 h, Sabouraud's medium pH 5 to 6, 25° C., 3 days
Description: as §1

Candida albicans = test: as above; format: cell-based; settings: 72 h, Sabouraud's medium pH 5 to 6, 25° C., 3 days
Description: as §1

Aspergillus fumigatus = test: as above; format: cell-based; settings: 72 h, Sabouraud's medium pH 5 to 6, 25° C., 3 days
Description: as §1

[4] = Acute toxicity (LD50, mortality one week after administration, Litchfield-Wilcoxon; autopsy after oral administration); format: in vivo, ICR-JCL female mice; settings: for LD50 at 168 h: mouse, in vivo, mice, 10 tested, one week after administration
Description: Ortho-methoxycinnamaldehyde was suspended in a mixed sulution of 1 part of Tween (mfd. Atlas Powder Co.) and 2 parts of a physiological salt solution. Commercially available ICR-JCL female mice (with a body weight of 22±1 g) were used for the toxicity tests, in which the mice were divided into groups, one being subjected to the percutaneous administration (p.c.) and the other group subjected to the oral administration (p.o.) and, one week after the administration their mortality was observed.

[5] = one week after oral administration

## COc1ccccc1C=CC=O [o-methoxycinnamaldehyde]
[1]
  Antimicrobial activity of substance obtained by synthesis compared with that obtained by extraction: identical in physical properties and antimicrobial activity to that obtained from the extraction method
Solubility; methanol, ethanol, acetone, benzene and chloroform
  Solubility in methanol, ethanol, acetone, benzene and chloroform: Soluble in methanol, ethanol, acetone, benzene and chloroform
Solubility; water
  Solubility in water: insoluble in water
[2]
  Death or abnormal symptom (subacute toxicity): neither death nor abnormal symptom was observed
Microsporum canis
  MIC: 6.25 µg/mL (≈ 38.5 µM)
Staphylococcus aureus
  MIC: 50 µg/mL (≈ 308 µM)
Trichophyton rubrum
  MIC: 12.5 µg/mL (≈ 77.1 µM)
Escherichia coli
  MIC: 60 µg/mL (≈ 370 µM)
Aspergillus niger
  MIC: 200 µg/mL (≈ 1230 µM)
[3]
  MIC: 12.5 µg/mL (≈ 77.1 µM)
Microsporum gypseum
  MIC: 25 µg/mL (≈ 154 µM)
Cryptococcus neoformans
  MIC: 12.5 µg/mL (≈ 77.1 µM)
Candida albicans
  MIC: 50 µg/mL (≈ 308 µM)
Aspergillus fumigatus
  MIC: 100 µg/mL (≈ 617 µM)
[4]; topical or ocular, percutaneous (p.c.)
  LD50 at 168 h: 8670 mg/kg
[4]; oral (p.o.)
  LD50 at 168 h: 4430 mg/kg
[4]; [5]
  Autopsy findings in appearance and visceral observation: no specific abnormal finding was obtained in appearance and also in visceral observation
  Toxic symptom: no specific toxic sympton was observed
